Measurements published in patent US9884832B2 (priority 2011, dated 2018).

Biological target: AM2 S31 (wild-type serine at position 31 in the M2 protein), influenza virus A/Udorn/72 (Influenza A virus, UniProt P0DOF5)
Test: cell-based
Settings: 100 uM; Xenopus oocytes; activity range class

AM2 S31 (wild-type serine at position 31 in the M2 protein), influenza virus A/Udorn/72, sequence (P0DOF5 whole entry, looked up): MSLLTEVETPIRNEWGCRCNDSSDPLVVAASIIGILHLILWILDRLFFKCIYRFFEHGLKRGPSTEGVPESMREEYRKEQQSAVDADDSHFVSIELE

Row | Compound | S31 OOcyte Inhibition at 100 uM (%)
1 | F[B-](F)(F)c1ccc(CNC23CC4CC(CC(C4)C2)C3)cc1.[K+] [Example 2a] | A ((A)=31-95%)

Same assay, conditions: 100 uM; Xenopus oocytes; activity range class; read-out: S31 OOcyte Inhibition at 100 uM (%)

Row | Compound | inhibition at 100 µM [%]
2 | CCOc1ccc(CNC23CC4CC(CC(C4)C2)C3)cc1 [Example 1a, Adamantan-1-yl-(4-ethoxy-benzyl)-amine] | 0 to 30
3 | Brc1cccc(CNC23CC4CC(CC(C4)C2)C3)c1 [Example 3a, N-(3-Bromobenzyl)adamantan-1-amine] | 31 to 95
4 | FC(F)(F)Oc1ccc(CNC23CC4CC(CC(C4)C2)C3)cc1 [Example 4a, Adamantan-1-yl-(4-trifluoromethoxy-benzyl)-amine] | 0 to 30
5 | FC(F)(F)c1ccc(CNC23CC4CC(CC(C4)C2)C3)cc1 [Example 5a, Adamantan-1-yl-(4-trifluoromethyl-benzyl)-amine] | 0 to 30
6 | C[Si](C)(C)c1ccc(CNC23CC4CC(CC(C4)C2)C3)cc1 [Example 6a, Adamantan-1-yl-(4-trimethylsilanyl-benzyl)-amine] | 0 to 30
7 | CC(C)(C)c1ccc(CNC23CC4CC(CC(C4)C2)C3)cc1 [Example 7a, N-(4-(tert-Butyl)benzyl)adamantan-1-amine methanesulfonate] | 0 to 30
8 | Cc1ccc(CNC23CC4CC(CC(C4)C2)C3)cc1 [Example 8a, N-(4-Methylbenzyl)adamantan-1-amine] | 31 to 95
9 | c1cc(C2CC2)ccc1CNC12CC3CC(CC(C3)C1)C2 [Example 9a, N-(4-Cyclopropylbenzyl)adamantan-1-amine] | 31 to 95
10 | c1cc(C2CCCCC2)ccc1CNC12CC3CC(CC(C3)C1)C2 [Example 10a, Adamantan-1-yl-(4-cyclohexyl-benzyl)-amine] | 0 to 30
11 | COc1ccc(C(C)NC23CC4CC(CC(C4)C2)C3)cc1 (centres unmarked) [Example 11a, N-(1-(4-methoxyphenyl)ethyl)adamantan-1-amine] | 31 to 95
12 | CCSc1ccc(CNC23CC4CC(CC(C4)C2)C3)cc1 [Example 12a, N-(4-(ethylthio)benzyl)adamantan-1-amine] | 0 to 30
13 | c1ccc(Oc2ccc(CNC34CC5CC(CC(C5)C3)C4)cc2)cc1 [Example 13a, Adamantan-1-yl-(4-phenoxy-benzyl)-amine] | 31 to 95
14 | COc1cccc(COc2ccc(CNC34CC5CC(CC(C5)C3)C4)cc2)c1 [Example 14a, Adamantan-1-yl-[4-(3-methoxy-benzyloxy)-benzyl]-amine] | 0 to 30
15 | COc1ccccc1COc1ccc(CNC23CC4CC(CC(C4)C2)C3)cc1 [Example 15a, Adamantan-1-yl-[4-(2-methoxy-benzyloxy)-benzyl]-amine] | 0 to 30
16 | Clc1ccc(COc2ccc(CNC34CC5CC(CC(C5)C3)C4)cc2)cc1 [Example 16a, Adamantan-1-yl-[4-(4-chloro-benzyloxy)-benzyl]-amine] | 31 to 95

Same assay, conditions: Table 1; 100 uM; Xenopus oocytes, pH 5.5, -20 mV; read-out: S31 OOcyte Inhibition at 100 uM (%)

Row | Compound | inhibition at 100 µM [%]
17 | c1ncc(CCNCC23CC4CC(CC(C4)C2)C3)[nH]1 [Example 1, Adamantan-1-ylmethyl-[2-(3H-imidazol-4-yl)-ethyl]-amine] | 0 to 30
18 | OCC(Cc1cnc[nH]1)NCC12CC3CC(CC(C3)C1)C2 (centres unmarked) [Example 2, 2-[(adamantan-1-ylmethyl)-amino]-3-(3H-imidazol-4-yl)-propan-1-ol] | 0 to 30
19 | COC(=O)C(Cc1cnc[nH]1)NCC12CC3CC(CC(C3)C1)C2 (centres unmarked) [Example 3, 2-[(Adamantan-1-ylmethyl)-amino]-3-(3H-imidazol-4-yl)-propionic acid methyl ester] | 0 to 30
20 | CC(NCc1ccc(O)cc1)C12CC3CC(CC(C3)C1)C2 (centres unmarked) [Example 4, 4-[(1-Adamantan-1-yl-ethylamino)-methyl]-phenol] | 31 to 95
21 | N=C(Nc1ccc(O)cc1)C12CC3CC(CC(C3)C1)C2 [Example 5] | 31 to 95
22 | Oc1ccc(/C=N/C23CC4CC(CC(C4)C2)C3)cc1 [Example 6] | 31 to 95
23 | Oc1ccc(/C=N/C23CC4CC(CC(C4)C2)C3)c(O)c1 [Example 7] | 31 to 95
24 | c1ccc(CNC23CC4CC(CC(C4)C2)C3)cc1 [Example 8, Adamantan-1-yl-benzyl-amine] | 31 to 95
25 | Oc1ccc(CNC23CC4CC(CC(C4)C2)C3)cc1 [Example 9, 4-(Adamantan-1-ylaminomethyl)-phenol] | 31 to 95
26 | Nc1ccc(CNC23CC4CC(CC(C4)C2)C3)cc1 [Example 11, Adamantan-1-yl-(4-amino-benzyl)-amine] | 31 to 95
27 | CC(C)(C)OC(=O)Nc1ccc(CNC23CC4CC(CC(C4)C2)C3)cc1 [Example 12, [4-(Adamantan-1-ylaminomethyl)-phenyl]carbamic acid tert-butyl ester] | 0 to 30
28 | NCc1ccc(CNC23CC4CC(CC(C4)C2)C3)cc1 [Example 13, Adamantan-1-yl-(4-aminomethyl-benzyl)-amine] | 0 to 30
29 | N#Cc1ccc(CNC23CC4CC(CC(C4)C2)C3)cc1 [Example 14, 4-(Adamantan-1-ylaminomethyl)-benzonitrile] | 31 to 95
30 | c1cc(-c2nnn[nH]2)ccc1CNC12CC3CC(CC(C3)C1)C2 [Example 15, Adamantan-1-yl-[4-(1H-tetrazol-5-yl)-benzyl]amine] | 0 to 30
31 | COc1ccc(CNC23CC4CC(CC(C4)C2)C3)cc1 [Example 16, Adamantan-1-yl-(4-methoxy-benzyl)-amine] | 31 to 95
32 | CC(=O)Nc1ccc(CNC23CC4CC(CC(C4)C2)C3)cc1 [Example 17, N-[4-(Adamantan-1-ylaminomethyl)-phenyl]-acetamide] | 0 to 30
33 | NC(=O)c1ccc(CNC23CC4CC(CC(C4)C2)C3)cc1 [Example 18, 4-(Adamantan-1-ylaminomethyl)-benzamide] | 0 to 30
34 | O=[N+]([O-])c1ccc(CNC23CC4CC(CC(C4)C2)C3)cc1 [Example 19, Adamantan-1-yl-(4-nitro-benzyl)-amine] | 31 to 95
35 | CCOc1ccc(CNC23CC4CC(CC(C4)C2)C3)cc1 [Example 20, Adamantan-1-yl-(4-ethoxy-benzyl)-amine] | 0 to 30
36 | c1coc(COc2ccc(CNC34CC5CC(CC(C5)C3)C4)cc2)c1 [Example 21, Adamantan-1-yl-[4-(furan-2-ylmethoxy)-benzyl]-amine] | 31 to 95

Same assay, conditions: Table 3; 100 uM; Xenopus oocytes, pH 5.5, -20 mV; read-out: S31 OOcyte Inhibition at 100 uM (%)

Row | Compound | inhibition at 100 µM [%]
37 | Clc1ccc(CNC23CC4CC(CC(C4)C2)C3)cc1 [Example 1b, N-(4-Chlorobenzyl)adamantan-1-amine] | 31 to 95
38 | Oc1cc(I)ccc1CNC12CC3CC(CC(C3)C1)C2 [Example 2b] | 31 to 95
39 | CC(NC12CC3CC(CC(C3)C1)C2)c1ccc(C(C)(C)C)cc1 (centres unmarked) [Example 3b, N-(1-(4-(tert-butyl)phenyl)ethyl)adamantan-1-amine] | 0 to 30
40 | CC(NC12CC3CC(CC(C3)C1)C2)c1ccc(-c2ccccc2)cc1 (centres unmarked) [Example 4b, N-(1-([1,1′-biphenyl]-4-yl)ethyl)adamantan-1-amine] | 31 to 95
41 | Cc1csc(-c2ccc(CNC34CC5CC(CC(C5)C3)C4)cc2)c1 [Example 5b, N-(4-(4-Methylthiophen-2-yl)benzyl)adamantan-1-amine] | 0 to 30
42 | Oc1cc(F)ccc1CNC12CC3CC(CC(C3)C1)C2 [Example 6b] | 31 to 95
43 | Oc1cc(-c2ccco2)ccc1CNC12CC3CC(CC(C3)C1)C2 [Example 7b, 2-((-Adamantan-1-ylamino)methyl)-5-(furan-2-yl)phenol] | 0 to 30
44 | Oc1cc(-c2ccsc2)ccc1CNC12CC3CC(CC(C3)C1)C2 [Example 8b] | 0 to 30
45 | Oc1cc(Cl)ccc1CNC12CC3CC(CC(C3)C1)C2 [Example 9b, 2-((-Adamantan-1-ylamino)methyl)-5-chlorophenol] | 31 to 95
46 | Clc1nc(CNC23CC4CC(CC(C4)C2)C3)ns1 [Example 10b, N-((5-chloro-1,2,4-thiadiazol-3-yl)methyl)adamantan-1-amine] | 31 to 95
47 | c1csc(-c2nc(CNC34CC5CC(CC(C5)C3)C4)cs2)c1 [Example 11b, N-((2-(thiophen-2-yl)thiazol-4-yl)methyl)adamantan-1-amine] | 0 to 30
48 | Cc1nc(CNC23CC4CC(CC(C4)C2)C3)cs1 [Example 12b, N-((2-methylthiazol-4-yl)methyl)adamantan-1-amine] | 31 to 95
49 | Clc1ncc(CNC23CC4CC(CC(C4)C2)C3)s1 [Example 13b, N-((2-chlorothiazol-5-yl)methyl)adamantan-1-amine] | 31 to 95
50 | FC(F)(F)c1nnc(CNC23CC4CC(CC(C4)C2)C3)o1 [Example 14b, N-((5-(trifluoromethyl)-1,3,4-oxadiazol-2-yl)methyl)adamantan-1-amine] | 0 to 30
51 | COc1ccccc1-c1nc(CNC23CC4CC(CC(C4)C2)C3)no1 [Example 15b, N-((5-(2-methoxyphenyl)-1,2,4-oxadiazol-3-yl)methyl)adamantan-1-amine] | 0 to 30
52 | Cc1ncc(CNC23CC4CC(CC(C4)C2)C3)s1 [Example 16b, N-((2-methylthiazol-5-yl)methyl)adamantan-1-amine] | 0 to 30
53 | Cc1nnc(CNC23CC4CC(CC(C4)C2)C3)o1 [Example 17b, N-((5-methyl-1,3,4-oxadiazol-2-yl)methyl)adamantan-1-amine] | 0 to 30
54 | Cn1cc(CNC23CC4CC(CC(C4)C2)C3)nn1 [Example 18b, N-((1-methyl-1H-1,2,3-triazol-4-yl)methyl)adamantan-1-amine] | 0 to 30
55 | Nc1ncc(CNC23CC4CC(CC(C4)C2)C3)s1 [Example 19b] | 0 to 30
56 | CC(C)(C)c1ncc(CNC23CC4CC(CC(C4)C2)C3)s1 [Example 20b, N-((2-(tert-butyl)thiazol-5-yl)methyl)adamantan-1-amine] | 0 to 30
